SMILES strings stand for the structures.

The subject of this assay is HT-29 human colon tumor cells. As to the kind of experiment: Human colorectal adenocarcinoma HT-29 xenograft in vivo assay. The settings on record: female NU/NU mice; for in vivo Antitumor activity (tumor wt day-50/tumor wt day-14): HT-29 s.c. xenograft, optimal dose, subcutaneously twice a week for 5 weeks from day 14; for effect on tumor (stasis or regression): HT-29 xenograft, after 5 weeks of treatment (day 50), ratio of 1 = stasis, less than 1 = regression. The procedure:
Female NU/NU mice weighing 21 ± 2g, are used for this modified version of the test described by B.C. Giovanella, et al., Science, 246 1046 (1989). Control and test animals are injected subcutaneously in the sub-scapular region with a suspension of 10⁶ viable HT-29 human colon tumor cells on day 0. Tumors are allowed to grow for 2 weeks prior to drug administration. For each drug, several doses are chosen based on its in vitro activity against topoisomerase I. Each dose level group contains 8 animals. The test compounds are prepared in either 0.1 M acetate buffer, pH 5 (vehicle "a") or 87.5% phosphate buffered saline, 12.375% dimethylsulfoxide, and 0.125% Tween 80 (trademark of ICI America for polyoxyethylenesorbitan monooleate) (vehicle "b") and are administered subcutaneously twice a week for 5 weeks beginning on day 14. Doses are given on a mg/kg basis according to the mean body weight for each cage.
Tumor weight is calculated from two perpendicular caliper measurements of the tumor using the formula, tumor weight = length x width² ÷ 2 [formula] in millimeters. For each animal, tumor weight is monitored over the course of the experiment. For each group, the results are expressed as the ratio of the mean tumor weight immediately after 5 weeks of treatment (day 50) divided by the mean tumor weight immediately before treatment (day 14). […] The criterion for antitumor activity is at least 50% inhibition of tumor growth after 5 weeks of dosing (day 50), giving a ratio of less than or equal to ten. TABLE B
On the technique in general: In xenograft studies the graft and the host belong to different species.

The mark [1] stands for this setting: vehicle b: 87.5% phosphate buffered saline, 12.375% dimethylsulfoxide, 0.125% Tween 80.
The mark [2] stands for this setting: vehicle a: 0.1 M acetate buffer, pH 5.

Regarding `CC[C@@]1(O)C(=O)OCc2c1cc1n(c2=O)Cc2c-1nc1cc3c(cc1c2CN(C)C)OCO3` [Example 2, 7-Dimethylaminomethylene-10, 11-methylenedioxy-20(S)-camptothecin], the “in vivo Antitumor activity (tumor wt day-50/tumor wt day-14)” value (shortened to “in vivo Antitumor activity”) under setting [1] is given as 1.8^b.
For `CC[C@@]1(O)C(=O)OCc2c1cc1n(c2=O)Cc2c-1nc1cc3c(cc1c2CN(C)C)OCCO3` [Example 4, 7-Dimethylaminomethylene-10, 11-ethylenedioxy-20(S)-camptothecin], the “effect on tumor (stasis or regression)” value is on record as “tumor stasis”.
Consider `CC[C@@]1(O)C(=O)OCc2c1cc1n(c2=O)Cc2c-1nc1cc3c(cc1c2CN1CCOCC1)OCCO3` [Example 6, 7-Morpholinomethylene-10, 11-ethylenedioxy-20(S)-camptothecin], for which the “effect on tumor (stasis or regression)” value is “tumor stasis”. Further, the “in vivo Antitumor activity” value under setting [1] is recorded as 1.0^b.
For `CC[C@@]1(O)C(=O)OCc2c1cc1n(c2=O)Cc2c-1nc1cc3c(cc1c2CN1CCN(C)CC1)OCCO3` [Example 11, 7-(4-methylpiperazinomethylene)-10, 11-ethylenedioxy-20(S)-camptothecin], the “effect on tumor (stasis or regression)” value is listed as “tumor regression”. Moreover, the “in vivo Antitumor activity” value under setting [2] is 0.6^a.
As for `CCN(CC)Cc1c2c(nc3cc4c(cc13)OCCO4)-c1cc3c(c(=O)n1C2)COC(=O)[C@]3(O)CC` [Example 14, 7-Diethylaminomethylene-10, 11-ethylenedioxy-20(S)-camptothecin], under setting [2], the “in vivo Antitumor activity” value is on record as 2.0^a.
On the same count and under the same terms, the figure for `CC[C@@]1(O)C(=O)OCc2c1cc1n(c2=O)Cc2c-1nc1cc3c(cc1c2CN1CCC1)OCO3` [Example 20, 7-Azetidinomethylene-10, 11-methylenedioxy-20(S)-camptothecin] is 1.5^a.
Still for that read-out and setting: in the case of `CC[C@@]1(O)C(=O)OCc2c1cc1n(c2=O)Cc2c-1nc1cc3c(cc1c2CN1CCC1)OCCO3` [Example 22, 7-Azetidinomethylene-10, 11-ethylenedioxy-20(S)-camptothecin] it was 1.6^a.
With `CC[C@@]1(O)C(=O)OCc2c1cc1n(c2=O)Cc2c-1nc1cc3c(cc1c2CN1CCN(C)CC1)OCO3` [Example 23, 7-(4-Methylpiperazinomethylene)-10, 11-methylenedioxy-20(S)-camptothecin], the “effect on tumor (stasis or regression)” value is listed as “tumor regression”. Further, the “in vivo Antitumor activity” value under setting [2] is 0.5^a.

These data come from EP0540099A1, “Water soluble camptothecin derivatives” (priority 1991, dated 1993).
